19 compounds from EP0623605A2, “Substituted piperazines as antiretroviral medicaments” (BAYER AG, priority 1993, dated 1994) can be followed below.

This experiment concerns the target T1, HIV-Protease (Human immunodeficiency virus type 1 group M subtype B, UniProt P04585).
T1 construct: Gereinigte HIV-Protease wurde mit synthetischem Peptid
Description: HIV-specific protease enzyme test (purified HIV protease incubated with synthetic Gag cleavage-site peptide, cleavage products analysed by RP-HPLC). The format is biochemical. The following applies: for inhibition at 240 µg/mL: read-out: % Inhibition bei 240 µg/ml; for IC50: substance concentration causing 50% inhibition of protease activity, read-out: IC₅₀. An excerpt: Darüber hinaus wurde überraschend gefunden, daß die Verbindungen der allgemeinen Formel (I) eine außerordentlich starke Wirkung gegen Retroviren besitzen. Dies wird mit einem HIV-spezifischen Protease-Enzymtest belegt.
Die Ergebnisse der unten aufgeführten Beispiele wurden nach dem in den folgenden Literaturangaben [vgl. Hansen, J., Billich, S., Schulze, T., Sukrow, S. and Mölling, K. (1988), EMBO Journal, Vol, 7, No. 6, pp. 1785 - 1791] beschriebenen HIV-Testsystem ermittelt: Gereinigte HIV-Protease wurde mit synthetischem Peptid, das eine Schnittstelle im Gag-Precursor-Protein imitiert und eine in vivo-Spaltstelle der HIV-Protease darstellt, inkubiert Die entstandenen Spaltprodukte des synthetischen Peptids wurden über Reverse Phase High Performance Liquid Chromatography (RP-HPLC) analysiert. Die angegebenen IC₅₀-Werte beziehen sich auf die Substanzkonzentration, die unter den oben aufgeführten Testbedingungen eine 50%ige Hemmung der Protease-Aktivität bewirkt. Tabelle 1

Regarding `COc1cc(C)ccc1OCCN1CCN(CCCC(c2ccc(F)cc2)c2ccc(F)cc2)CC1` [Beispiel 22], the inhibition at 240 µg/mL amounted to 81%.

On to `C[C@H]1CN(CCCC(c2ccc(F)cc2)c2ccc(F)cc2)CCN1CCOc1ccc(F)cc1F` [Beispiel 14, (S)-4-[4,4-Bis-(4-fluorphenyl)butyl]-2-methyl-1-[2-(2,4-difluorphenoxy)ethyl]piperazin], for which the inhibition at 240 µg/mL came to 99% and the IC50 stood at 1.1 µM.

As to `CCN(C)c1cc(CO)ccc1OCCN1CCN(CCCC(c2ccc(F)cc2)c2ccc(F)cc2)CC1` [Beispiel 34], the inhibition at 240 µg/mL came out at 99% and the IC50 turned out to be 0.17 µM.

Consider `CC(CN1CCN(CCCC(c2ccc(F)cc2)c2ccc(F)cc2)CC1)Oc1ccc(C(F)(F)F)cc1` (racemic) [Beispiel 40], for which the inhibition at 240 µg/mL stood at 84%.

As for `COc1cccc2c1OC(CN1CCN(CCCC(c3ccc(F)cc3)c3ccc(F)cc3)C[C@@H]1C)CC2` (some centres unmarked) [Beispiel 44], the inhibition at 240 µg/mL is 99% and the IC50 turned out to be 26 µM.

As to `Cc1cccc(OCCN2CCN(CCCC(c3ccc(F)cc3)c3ccc(F)cc3)CC2)c1C` [Beispiel 16], the inhibition at 240 µg/mL is 59%.

`Fc1ccc(C(CCCN2CCN(CCOc3cccc4c3CCCC4)CC2)c2ccc(F)cc2)cc1` [Beispiel 26]: the inhibition at 240 µg/mL was 97% and the IC50 was found to be 1 µM.

For the compound `CN(C)c1ccccc1OCCN1CCN(CCCC(c2ccc(F)cc2)c2ccc(F)cc2)CC1` [Beispiel 3, 1-[4,4-Bis-(4-fluorphenyl)butyl]-4-[2-(2-N,N-dimethylaminophenoxy)ethyl]piperazin], the inhibition at 240 µg/mL was 76%.

Turning to `Cc1cccc(OC(C)CN2CCN(CCCC(c3ccc(F)cc3)c3ccc(F)cc3)CC2)c1C` (racemic) [Beispiel 37], the inhibition at 240 µg/mL amounted to 61%.

For the compound `C[C@H]1CN(CCOc2ccc(F)cc2F)CCN1CCCC(c1ccc(F)cc1)c1ccc(F)cc1` [Beispiel 13, (S)-1-[4,4-Bis-(4-fluorphenyl)butyl]-2-methyl-4-[2-(2,4-difluorphenoxy)ethyl]piperazin], the inhibition at 240 µg/mL turned out to be 91% and the IC50 is 0.48 µM.

Consider `Cc1ccc(N)cc1OCCN1CCN(CCCC(c2ccc(F)cc2)c2ccc(F)cc2)CC1` [Beispiel 32], for which the inhibition at 240 µg/mL was determined as 67%.

In the case of `COC(=O)c1ccc(OCCN2CCN(CCCC(c3ccc(F)cc3)c3ccc(F)cc3)CC2)c(N(C)C(C)=O)c1` [Beispiel 33], the inhibition at 240 µg/mL turned out to be 56%.

With `CC(CN1CCN(CCCC(c2ccc(F)cc2)c2ccc(F)cc2)CC1)Oc1ccc(F)cc1F` (racemic) [Beispiel 10, 1-[4,4-Bis-(4-fluorphenyl)butyl]-4-[(R/S)-2-(2,4-difluorphenoxy)propyl]piperazin], the inhibition at 240 µg/mL is 77% and the IC50 stood at 4.8 µM.

As to `Cc1cc(Cl)ccc1OC(C)CN1CCN(CCCC(c2ccc(F)cc2)c2ccc(F)cc2)CC1` (centres unmarked) [Beispiel 39], the inhibition at 240 µg/mL is 77% and the IC50 is 1 µM.

Consider `COc1cccc2c1OC(CN1CCN(CCCC(c3ccc(F)cc3)c3ccc(F)cc3)CC1)CC2` (centres unmarked) [Beispiel 27], for which the inhibition at 240 µg/mL came out at 78%.

For the compound `CC(CN1CCN(CCCC(c2ccc(F)cc2)c2ccc(F)cc2)CC1)Oc1cccc2c1CCCC2` (centres unmarked) [Beispiel 41], the inhibition at 240 µg/mL amounted to 95% and the IC50 is 2.1 µM.

Regarding `Cc1ccc(N(C)C)cc1OCCN1CCN(CCCC(c2ccc(F)cc2)c2ccc(F)cc2)CC1` [Beispiel 30], the inhibition at 240 µg/mL is 81%.

As for `Fc1ccc(C(CCCN2CCN(CCOc3ccc(F)cc3F)CC2)c2ccc(F)cc2)cc1` [Beispiel 15], the inhibition at 240 µg/mL came out at 92% and the IC50 was found to be 0.4 µM.

For `Cc1cc(Cl)ccc1OCCN1CCN(CCCC(c2ccc(F)cc2)c2ccc(F)cc2)CC1` [Beispiel 17], the inhibition at 240 µg/mL is 86% and the IC50 was 0.5 µM.
